Data as given in patent US20160053227A1, “AGENT FOR INDUCING DIFFERENTIATION OF WHITE ADIPOCYTES INTO BROWN-LIKE ADIPOCYTES” (UHA MIKAKUTO CO., LTD., priority 2013, published 2016).

Key:
[1] = Physicochemical characteristics: solubility
Excerpt: The physicochemical characteristics of UHA4022 are as follows.

[2] = test system: 3T3-L1 precursor adipocyte; test: Example II-3: index gene expression in adipocytes after maturation, with or without adrenaline stimulation, real-time RT-PCR; assay type: cell-based, mouse; settings: matured cells, 1 μM L-adrenaline for 2 hours; control 3.1 times
Procedure: Since it was evaluated in Example II-2 whether the derivative-containing composition induces the differentiation from the white adipocytes into the brown-like adipocytes using the cells immediately after the induction of the differentiation, it was evaluated in Example II-3 whether the relevant induced cell maintains the trait of the brown-like adipocytes even after maturation using matured adipocytes. The evaluation was made using as indexes the expression level of each gene of FGF-21, PGC-1α, and cell death-inducing DFFA-like effector a (Cidea) which is a brown-like adipocyte marker gene as well as the expression level of […] gene when adding adrenaline to the adipocyte after maturation based on the understanding that the brown-like adipocyte responds to the adrenaline stimulation thereby increasing the expression level of UCP1 gene, whereby the induction of the differentiation of the white adipocytes into the brown-like adipocytes was confirmed. […]
Based on the Ct values (Threshold Cycle: number of cycles for achieving a certain amplification level (threshold)) of […], FGF-21, PGC-1α, PGC-1β, Cidea, and UCP1 in each cell obtained, the relative value of each gene expression level of FGF-21, PGC-1β, PGC-1α, Cidea, and UCP1 was calculated.

| Solubility in chloroform ([1]; Chloroform) | Solubility in DMSO ([1]; DMSO) | Solubility in ethanol ([1]; Ethanol) | Solubility in ethyl acetate ([1]; Ethyl acetate) | Solubility in methanol ([1]; Methanol) | Solubility in water ([1]; Water) | Structure (SMILES) | UCP1 gene expression-increasing effect of adrenaline, presence vs absence of adrenaline [2] [times] |
| --- | --- | --- | --- | --- | --- | --- | --- |
| Hardly soluble | Soluble | Soluble | Hardly soluble | Soluble | Hardly soluble | Oc1ccc(/C=C\c2c3c(cc4c2C(c2ccc(O)cc2)Cc2cc(O)cc(O)c2-4)-c2c(O)cc(O)cc2CC3c2ccc(O)cc2)cc1 (stereo not shown) [UHA4022] |  |
|  |  |  |  |  |  | CN(CCOc1ccc(CC2SC(=O)NC2=O)cc1)c1ccccn1 (stereo not shown) [rosiglitazone] | 6.2 |
